Measurements as given in patent publication EP0417790B1, “S-triazolo[3,4-i]purine derivatives” (Kyowa Hakko Kogyo Co., Ltd., priority 1989, dated 1991).
Where two headings read alike, the source gives them in different places.

Legend:
[1] = test system: male dd-mice; experiment: Acute toxicity; type: in vivo; conditions: Minimum lethal dose, oral, mortality observed for seven days
Method: The compounds were orally administrated to male dd-mice weighing 20 ± 1 g. Minimum lethal dose (MLD) was determined by observing the mortality for seven days after the administration.

[2] = test system: Wistar male rats; experiment: Diuretic activity; type: in vivo; conditions: Rattus norvegicus, po, 25 mg/kg orally, urine taken for 6 hours
Method: Wistar male rats weighing 150 to 300 g were used after fasting for 18 hours. […] The test was performed using 3 groups per test compound, and each group consists of 3 animals. The urine was metered by a measuring cylinder and electrolytes (Na^+ and K^+) in the urine were analyzed by flame photometer (model […]: Hitachi Ltd.). Parameters in Table 3 are represented by relative value for control.

[3] = relative value for control (1.00), read-out: Na^+/K^+
[4] = relative value for control (100), read-out: Excretion of K^+
[5] = relative value for control (100), read-out: Excretion of Na^+
[6] = relative value for control (100), read-out: Urine volume

SMILES | MLD [1] [mg/kg] | response vs control in vivo at 25 mg/kg [2, 3] [%] | response vs control in vivo at 25 mg/kg [2, 4] [%] | response vs control in vivo at 25 mg/kg [2, 5] [%] | response vs control in vivo at 25 mg/kg [2, 6] [%]
CCCn1c(=O)n2c(=S)[nH]nc2c2c1ncn2C [Compound 46, 9-Methyl-6-n-propyl-2,2,6,9-tetrahydro-3-thioxo-5H-1,2,4-triazolo[3,4-i]purin-5-one] | >300 |  |  |  | 
CCCn1c(=O)n2c(-c3cccnc3)nnc2c2[nH]cnc21 [Compound 32, 6,9-Dihydro-6-n-propyl-3-(3-pyridyl)-5H-1,2,4-triazolo[3,4-i]purin-5-one] |  | 152 | 129 | 196 | 195
CCn1nc2c3c(ncn3C)n(Cc3ccccc3)c(=O)n2c1=O [Compound 49, 6-Benzyl-2-ethyl-9-methyl-2,5,6,9-tetrahydro-3H-1,2,4-triazolo[3,4-i]purin-2,5-dione] |  | 161 | 173 | 279 | 300
NS(=O)(=O)c1cc(C(=O)O)c(NCc2ccco2)cc1Cl [Furosemide, reference compound] |  | 105 |  |  | 
CCCn1c(=O)n2c(-c3ccncc3)nnc2c2c1ncn2Cc1ccccc1 [Compound 39, 9-Benzyl-6,9-dihydro-6-n-propyl-3-(4-pyridyl)-5H-1,2,4-triazolo[3,4-i]purin-5-one] | >300 | 127 | 145 | 184 | 185
CCCn1c(=O)n2c(=O)n(CC)nc2c2c1ncn2C [Compound 48, 2-Ethyl-9-methyl-6-n-propyl-2,5,6,9-tetrahydro-3H-1,2,4-triazolo[3,4-i]purin-2,5-dione] | >300 |  |  |  | 
CCCn1c(=O)n2c(-c3ccc(OC)c(OC)c3)nnc2c2c1ncn2C [Compound 21, 6,9-Dihydro-3-(3,4-dimethoxyphenyl)-9-methyl-6-n-propyl-5H-1,2,4-triazolo[3,4-i]purin-5-one] | >300 |  |  |  | 
Cn1cnc2c1c1n[nH]c(=O)n1c(=O)n2Cc1ccccc1 [Compound 42, 6-Benzyl-9-methyl-2,5,6,9-tetrahydro-3H-1,2,4-triazolo[3,4-i]purin-3,5-dione] | >300 |  |  |  | 
CCCn1c(=O)n2c(-c3ccc([N+](=O)[O-])cc3)nnc2c2c1ncn2C [Compound 16, 6,9-Dihydro-9-methyl-3-(4-nitrophenyl)-6-n-propyl-5H-1,2,4-triazolo[3,4-i]purin-5-one] | >300 | 111 | 175 | 194 | 170
CCCn1c(=O)n2c(-c3ccc(C(F)(F)F)cc3)nnc2c2c1ncn2C [Compound 15, 6,9-Dihydro-9-methyl-6-n-propyl-3-(4-trifluoromethylphenyl)-5H-1,2,4-triazolo[3,4-i]purin-5-one] | >300 |  |  |  | 
CCCn1c(=O)n2c(=O)[nH]nc2c2[nH]c(C3CCCC3)nc21 [Compound 43, 8-Cyclopentyl-6-n-propyl-2,5,6,9-tetrahydro-3H-1,2,4-triazolo[3,4-i]purin-3,5-dione] | >300 |  |  |  | 
CCCn1c(=O)n2c(-c3cc(Cl)ccc3Cl)nnc2c2c1ncn2C [Compound 19, 3-(2,5-Dichlorophenyl)-6,9-dihydro-9-methyl-6-n-propyl-5H-1,2,4-triazolo[3,4-i]purin-5-one] | >300 |  |  |  | 
CCCn1c(=O)n2c(-c3ccc(C(=O)OC)cc3)nnc2c2c1ncn2C [Compound 22, 6,9-Dihydro-3-(4-methoxycarbonylphenyl)-9-methyl-6-n-propyl-5H-1,2,4-triazolo[3,4-i]purin-5-one] | >300 |  |  |  | 
CCCn1c(=O)n2c(-c3ccccc3OC)nnc2c2c1ncn2C [Compound 7, 6,9-Dihydro-3-(2-methoxyphenyl)-9-methyl-6-n-propyl-5H-1,2,4-triazolo[3,4-i]purin-5-one] | 300 | 133 | 122 | 162 | 173
CCCn1c(=O)n2c(-c3ccccc3)nnc2c2[nH]c(C3CCCC3)nc21 [Compound 26, 8-Cyclopentyl-6,9-dihydro-6-n-propyl-3-phenyl-5H-1,2,4-triazolo[3,4-i]purin-5-one] | >300 |  |  |  | 
CCCn1c(=O)n2cnnc2c2c1ncn2C [Compound 36, 6,9-Dihydro-9-methyl-6-n-propyl-5H-1,2,4-triazolo[3,4-i]purin-5-one] | 300 |  |  |  | 
CCCn1c(=O)n2c(-c3ccccc3N)nnc2c2c1ncn2C [Compound 13, 3-(2-Aminophenyl)-6,9-dihydro-9-methyl-6-n-propyl-5H-1,2,4-triazolo[3,4-i]purin-5-one] | >300 |  |  |  | 
CCCn1c(=O)n2c(-c3ccc(N(C)C)cc3)nnc2c2c1ncn2C [Compound 18, 6,9-Dihydro-3-(4-dimethylaminophenyl)-9-methyl-6-n-propyl-5H-1,2,4-triazolo[3,4-i]purin-5-one] | >300 | 109 | 129 | 141 | 155
CCCn1c(=O)n2c(-c3ccc(Cl)c(Cl)c3)nnc2c2c1ncn2C [Compound 20, 3-(3,4-Dichlorophenyl)-6,9-dihydro-9-methyl-6-n-propyl-5H-1,2,4-triazolo[3,4-i]purin-5-one] | >300 |  |  |  | 
CCCn1c(=O)n2c(-c3cccs3)nnc2c2[nH]cnc21 [Compound 33, 6,9-Dihydro-6-n-propyl-3-(2-thienyl)-5H-1,2,4-triazolo[3,4-i]purin-5-one] | >300 |  |  |  | 
CCCn1c(=O)n2c(-c3ccc(C(=O)O)cc3)nnc2c2c1ncn2C [Compound 23, 6,9-Dihydro-3-(4-carboxyphenyl)-9-methyl-6-n-propyl-5H-1,2,4-triazolo[3,4-i]purin-5-one] | >300 |  |  |  | 
CCCn1c(=O)n2c(-c3ccc(F)cc3)nnc2c2c1ncn2C [Compound 17, 6,9-Dihydro-3-(4-fluorophenyl)-9-methyl-6-n-propyl-5H-1,2,4-triazolo[3,4-i]purin-5-one] | >300 | 142 | 134 | 179 | 178
CCCn1cnc2c1c1nnc(-c3ccncc3)n1c(=O)n2CCC [Compound 40Sa] | 100 | 97 | 136 | 132 | 155
CCCn1c(=O)n2c(C)nnc2c2[nH]c(C3CCCC3)nc21 [Compound 27, 8-Cyclopentyl-6,9-dihydro-3-methyl-6-n-propyl-5H-1,2,4-triazolo[3,4-i]purin-5-one] | >300 |  |  |  | 
Cc1nnc2c3[nH]cnc3n(Cc3ccccc3)c(=O)n12 [Compound 37, 6-Benzyl-6,9-dihydro-3-methyl-5H-1,2,4-triazolo[3,4-i]purin-5-one] | >300 |  |  |  | 
Cn1cnc2c1c1nnc(-c3ccccc3)n1c(=O)n2Cc1ccccc1 [Compound 28, 6-Benzyl-6,9-dihydro-9-methyl-3-phenyl-5H-1,2,4-triazolo-[3,4-i]purin-5-one] | >300 |  |  |  | 
